{"source": "patent US20250230193A1", "about": "“CYCLIC COMPOUND HAVING SELECTIVE KRAS INHIBITORY EFFECT ON HRAS AND NRAS” (CHUGAI SEIYAKU KABUSHIKI KAISHA, priority 2022, published 2025)", "key": {"[1]": {"target": "GDP-bound HRAS wild-type protein (Homo sapiens, UniProt P01112)", "sequence (P01112 whole entry)": "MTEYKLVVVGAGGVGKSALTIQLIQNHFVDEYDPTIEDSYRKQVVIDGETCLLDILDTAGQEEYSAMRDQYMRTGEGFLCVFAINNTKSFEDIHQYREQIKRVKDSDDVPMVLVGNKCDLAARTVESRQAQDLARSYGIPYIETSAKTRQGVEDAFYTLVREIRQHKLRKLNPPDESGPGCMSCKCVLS", "test": "Binding to HRAS by surface plasmon resonance (SPR), Single Cycle Kinetics", "conditions": "for HRAS/KRAS (ratio of KD value for HRAS to KD value for KRAS) / HRAS/KRAS (ratio of KD value with respect to HRAS to KD value with respect to KRAS): GDP-bound HRAS wild-type vs GDP-bound KRAS wild-type"}, "[2]": {"target": "GDP-bound NRAS wild-type protein (Homo sapiens, UniProt P01111)", "sequence (P01111 whole entry)": "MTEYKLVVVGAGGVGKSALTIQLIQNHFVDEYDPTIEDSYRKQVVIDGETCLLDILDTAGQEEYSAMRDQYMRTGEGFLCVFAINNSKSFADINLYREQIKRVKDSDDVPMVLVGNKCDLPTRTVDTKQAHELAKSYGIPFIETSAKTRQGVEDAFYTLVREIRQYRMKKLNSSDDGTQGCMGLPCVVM", "test": "Binding to NRAS by surface plasmon resonance (SPR), Single Cycle Kinetics", "conditions": "for NRAS/KRAS (ratio of KD value for NRAS to KD value for KRAS) / NRAS/KRAS (ratio of KD value with respect to NRAS to KD value with respect to KRAS): GDP-bound NRAS wild-type vs GDP-bound KRAS wild-type"}}, "note": "*1 amine or outer side, *2 acyl side, *3 side chain or, on linkers, in order; H or OH if unused. Where a SMILES comes first, the peptide text is derived from it. Bridges are numbered along the chain shown (N, C = ends). [ ]: non-standard residue; d: D form. The star is where a group is joined. hPhe(3-Cl-4-CF3) = N[C@@H](CCc1ccc(C(F)(F)F)c(Cl)c1)C(=O)O; NPrPhe(4-CF3) = CCCN[C@@H](Cc1ccc(C(F)(F)F)cc1)C(=O)O; NEtAsp = CCN([C@@H](CC(=O)[*:3])C(=O)[*:2])[*:1]; NMeGly(cPent) = CN[C@H](C(=O)O)C1CCCC1; NMeNva(3-Et) = CCC(CC)[C@H](NC)C(=O)O; NMeD = CN[C@@H](CC(=O)O)C(=O)O; NMeL = CN[C@@H](CC(C)C)C(=O)O; NMeNva = CCC[C@H](NC)C(=O)O; Morpholide = C1CN(*)CCO1; NMeA = CN[C@@H](C)C(=O)O; Aze = O=C(O)[C@@H]1CCN1; Ac4c = NC1(C(=O)O)CCC1; Sar = CNCC(=O)O"}
{"smiles": "CCC[C@H]1C(=O)N[C@@H](CC(C)C)C(=O)N(CCOC)CC(=O)N(C)[C@H]2C/C=C\\CCN(C2=O)[C@@H](Cc2ccc(C)cc2)C(=O)N(C)CC(=O)N[C@@H](CCc2ccc(C(F)(F)F)c(Cl)c2)C(=O)N2C[C@H](OCC)C[C@H]2C(=O)NC2(CCC2)C(=O)N(C)[C@@H](C2CCCC2)C(=O)N(C)[C@H](C(=O)N(C)C)CC(=O)N1C", "note": "[PP2546]", "values": [{"measurement": "HRAS/KRAS (ratio of KD value with respect to GDP-bound HRAS wild-type protein to KD value with respect to KRAS)", "setting": "[1]; class symbols", "value": "B (a compound having 3 or more and less than 10 is denoted as B)"}, {"measurement": "NRAS/KRAS (ratio of KD value with respect to GDP-bound NRAS wild-type protein to KD value with respect to KRAS)", "setting": "[2]; class symbols", "value": "B (a compound having 3 or more and less than 10 is denoted as B)"}]}
{"smiles": "CCCN1C(=O)[C@@H]2CCN2C(=O)[C@H](C)N(C)C(=O)[C@H]([C@@H](C)CC)NC(=O)[C@H](CC(C)C)N(C)C(=O)C[C@@H](C(=O)N(C)C)N(C)C(=O)[C@H](C2CCCC2)N(C)C(=O)C2(CCC2)NC(=O)[C@@H]2CCCN2C(=O)[C@H](CCc2ccc(C(F)(F)F)c(Cl)c2)NC(=O)CN(C)C(=O)[C@@H]1Cc1ccc(C(F)(F)F)cc1", "note": "[PP0435] ([NMeL]I[NMeA][Aze][NPrPhe(4-CF3)][Sar][hPhe(3-Cl-4-CF3)]P[Ac4c][NMeGly(cPent)][NMeD]-NMe2; lactam N-11)", "values": [{"measurement": "HRAS/KRAS (ratio of KD value with respect to GDP-bound HRAS wild-type protein to KD value with respect to KRAS)", "setting": "[1]; SPR", "value": "C (A compound having a KD ratio of 0.1 or more and less than 3 is denoted as C)"}, {"measurement": "NRAS/KRAS (ratio of KD value with respect to GDP-bound NRAS wild-type protein to KD value with respect to KRAS)", "setting": "[2]; SPR", "value": "C (A compound having a KD ratio of 0.1 or more and less than 3 is denoted as C)"}]}
{"smiles": "CCC[C@H]1C(=O)N[C@@H]([C@@H](C)CC)C(=O)N(C)[C@@H](C)C(=O)N2CC[C@H]2C(=O)N(CCC)[C@@H](Cc2ccc(C(F)(F)F)cc2)C(=O)N(C)CC(=O)N[C@@H](CCc2ccc(C(F)(F)F)c(Cl)c2)C(=O)N2CCC[C@H]2C(=O)NC2(CCC2)C(=O)N(C)[C@@H](C2CCCC2)C(=O)N(CC)[C@H](C(=O)N2CCOCC2)CC(=O)N1C", "note": "[PP1955] ([NMeNva]I[NMeA][Aze][NPrPhe(4-CF3)][Sar][hPhe(3-Cl-4-CF3)]P[Ac4c][NMeGly(cPent)][NEtAsp]-Morpholide; lactam N-11)", "values": [{"measurement": "HRAS/KRAS (ratio of KD value for HRAS to KD value for KRAS)", "setting": "[1]; SPR", "value": "B (a compound having 3 or more and less than 10 is denoted as B)"}, {"measurement": "NRAS/KRAS (ratio of KD value for NRAS to KD value for KRAS)", "setting": "[2]; SPR", "value": "C (A compound having a KD ratio of 0.1 or more and less than 3 is denoted as C)"}]}
{"smiles": "CCC(CC)[C@H]1C(=O)N(C)[C@H](C(=O)N(C)C)CC(=O)N(C)[C@@H](COC)C(=O)N[C@@H]([C@@H](C)CC)C(=O)N(C)CC(=O)N(C)[C@H]2C/C=C\\CCN(C2=O)[C@@H](Cc2ccc(C)cc2)C(=O)N(C)CC(=O)N[C@@H](CCc2cc(F)c(C(F)(F)F)c(F)c2)C(=O)N2CC3(CC3)C[C@H]2C(=O)NC2(CC(C)(C)C2)C(=O)N1C", "note": "[PP2963]", "values": [{"measurement": "HRAS/KRAS (ratio of KD value with respect to GDP-bound HRAS wild-type protein to KD value with respect to KRAS)", "setting": "[1]; class symbols", "value": "A (a compound having 10 or more and less than 20 is denoted as A)"}, {"measurement": "NRAS/KRAS (ratio of KD value with respect to GDP-bound NRAS wild-type protein to KD value with respect to KRAS)", "setting": "[2]; class symbols", "value": "AA (a compound having 20 or more is denoted as AA)"}]}
{"smiles": "CCOC[C@H]1C(=O)N[C@@H]([C@@H](C)CC)C(=O)N(C)CC(=O)N(C)[C@H]2C/C=C\\CCN(C2=O)[C@@H](Cc2ccc(C(F)(F)F)cc2)C(=O)N(C)CC(=O)N[C@@H](CCc2ccc(C(F)(F)F)c(OC)c2)C(=O)N2C[C@@H](C)C[C@H]2C(=O)NC2(CC(C)(C)C2)C(=O)N(C)[C@@H](C2CCCC2)C(=O)N(C)[C@H](C(=O)N(C)CC)CC(=O)N1C", "note": "[PP1993]", "values": [{"measurement": "HRAS/KRAS (ratio of KD value for HRAS to KD value for KRAS)", "setting": "[1]; SPR", "value": "A (a compound having 10 or more and less than 20 is denoted as A)"}, {"measurement": "NRAS/KRAS (ratio of KD value for NRAS to KD value for KRAS)", "setting": "[2]; SPR", "value": "A (a compound having 10 or more and less than 20 is denoted as A)"}]}
{"smiles": "CC[C@H](C)[C@@H]1NC(=O)[C@H](C(C)C)N(C)C(=O)C[C@@H](C(=O)N(C)C)N(C)C(=O)[C@H](C2CCCC2)N(C)C(=O)C2(CC(C)(C)C2)NC(=O)[C@@H]2C[C@H](C)CN2C(=O)[C@H](CCc2ccc(C(F)(F)F)c(OC)c2)NC(=O)CN(C)C(=O)[C@H](Cc2ccc(C(F)(F)F)cc2)N2CC/C=C\\C[C@@H](C2=O)N(C)C(=O)CN(C)C1=O", "note": "[PP2005]", "values": [{"measurement": "HRAS/KRAS (ratio of KD value for HRAS to KD value for KRAS)", "setting": "[1]; SPR", "value": "A (a compound having 10 or more and less than 20 is denoted as A)"}, {"measurement": "NRAS/KRAS (ratio of KD value for NRAS to KD value for KRAS)", "setting": "[2]; SPR", "value": "A (a compound having 10 or more and less than 20 is denoted as A)"}]}
{"smiles": "CCO[C@@H]1C[C@H]2C(=O)NC3(CCC3)C(=O)N(C)[C@@H](C3CCCC3)C(=O)N(C)[C@H](C(=O)N(C)C)CC(=O)N(C)[C@@H](CC(C)C)C(=O)N[C@@H]([C@@H](C)CC)C(=O)N(C)CC(=O)N(C)[C@H]3CCCCN(C3=O)[C@@H](Cc3ccc(C(F)(F)F)cc3)C(=O)N(C)CC(=O)N[C@@H](CCc3cc(F)c(C(F)(F)F)c(F)c3)C(=O)N2C1", "note": "[PP0580]", "values": [{"measurement": "HRAS/KRAS (ratio of KD value with respect to GDP-bound HRAS wild-type protein to KD value with respect to KRAS)", "setting": "[1]; SPR", "value": "C (A compound having a KD ratio of 0.1 or more and less than 3 is denoted as C)"}, {"measurement": "NRAS/KRAS (ratio of KD value with respect to GDP-bound NRAS wild-type protein to KD value with respect to KRAS)", "setting": "[2]; SPR", "value": "C (A compound having a KD ratio of 0.1 or more and less than 3 is denoted as C)"}]}
{"smiles": "CCO[C@@H]1C[C@H]2C(=O)NC3(CC(C)(C)C3)C(=O)N(C)[C@@H](C(CC)CC)C(=O)N(C)[C@H](C(=O)N(C)C)CC(=O)N(C)[C@@H](COC)C(=O)N[C@@H]([C@@H](C)CC)C(=O)N(C)CC(=O)N(C)[C@H]3C/C=C\\CCN(C3=O)[C@@H](CC3CCCCC3)C(=O)N(C)CC(=O)N[C@@H](CCc3ccc(C(F)(F)F)c(OC)c3)C(=O)N2C1", "note": "[PP2452]", "values": [{"measurement": "HRAS/KRAS (ratio of KD value with respect to HRAS to KD value with respect to KRAS)", "setting": "[1]; SPR", "value": "A (a compound having 10 or more and less than 20 is denoted as A)"}, {"measurement": "NRAS/KRAS (ratio of KD value with respect to NRAS to KD value with respect to KRAS)", "setting": "[2]; SPR", "value": "A (a compound having 10 or more and less than 20 is denoted as A)"}]}
{"smiles": "CCO[C@@H]1C[C@H]2C(=O)NC3(CC(C)(C)C3)C(=O)N(C)[C@@H](C(CC)CC)C(=O)N(C)[C@H](C(=O)N(C)C)CC(=O)N(C)[C@@H](COC)C(=O)N[C@@H]([C@@H](C)CC)C(=O)N(C)CC(=O)N(C)[C@H]3C/C=C\\CCN(C3=O)[C@@H](CC3CCC(F)(F)CC3)C(=O)N(C)CC(=O)N[C@@H](CCc3ccc(C(F)(F)F)c(Cl)c3)C(=O)N2C1", "note": "[PP2444]", "values": [{"measurement": "HRAS/KRAS (ratio of KD value with respect to HRAS to KD value with respect to KRAS)", "setting": "[1]; SPR", "value": "A (a compound having 10 or more and less than 20 is denoted as A)"}, {"measurement": "NRAS/KRAS (ratio of KD value with respect to NRAS to KD value with respect to KRAS)", "setting": "[2]; SPR", "value": "A (a compound having 10 or more and less than 20 is denoted as A)"}]}
{"smiles": "CCCN1C(=O)[C@@H]2CCN2C(=O)[C@H](C)N(C)C(=O)[C@H]([C@@H](C)CC)NC(=O)[C@H](CC(C)C)N(C)C(=O)C[C@@H](C(=O)N(C)C)N(C)C(=O)[C@H](C(CC)CC)N(C)C(=O)C2(CCC2)NC(=O)[C@@H]2CCCN2C(=O)[C@H](CCc2ccc(C(F)(F)F)c(Cl)c2)NC(=O)CN(C)C(=O)[C@@H]1Cc1ccc(C(F)(F)F)cc1", "note": "[PP1961] ([NMeL]I[NMeA][Aze][NPrPhe(4-CF3)][Sar][hPhe(3-Cl-4-CF3)]P[Ac4c][NMeNva(3-Et)][NMeD]-NMe2; lactam N-11)", "values": [{"measurement": "HRAS/KRAS (ratio of KD value for HRAS to KD value for KRAS)", "setting": "[1]; SPR", "value": "C (A compound having a KD ratio of 0.1 or more and less than 3 is denoted as C)"}, {"measurement": "NRAS/KRAS (ratio of KD value for NRAS to KD value for KRAS)", "setting": "[2]; SPR", "value": "C (A compound having a KD ratio of 0.1 or more and less than 3 is denoted as C)"}]}
{"smiles": "CCC[C@H]1C(=O)N[C@@H]([C@@H](C)CC)C(=O)N(C)CC(=O)N(C)[C@H]2C/C=C\\CCN(C2=O)[C@@H](Cc2ccc(C(F)(F)F)cc2)C(=O)N(C)CC(=O)N[C@@H](CCc2cc(F)c(C(F)(F)F)c(F)c2)C(=O)N2CC(F)(F)C[C@H]2C(=O)NC2(CC(C)(C)C2)C(=O)N(C)[C@@H](C2CCCC2)C(=O)N(C)[C@H](C(=O)N(C)C)CC(=O)N1C", "note": "[PP1711]", "values": [{"measurement": "HRAS/KRAS (ratio of KD value for HRAS to KD value for KRAS)", "setting": "[1]; SPR", "value": "B (a compound having 3 or more and less than 10 is denoted as B)"}, {"measurement": "NRAS/KRAS (ratio of KD value for NRAS to KD value for KRAS)", "setting": "[2]; SPR", "value": "A (a compound having 10 or more and less than 20 is denoted as A)"}]}
